The values that follow come from PMC9847973, “Characterizing inhibitors of human AP endonuclease 1” (PLOS ONE, 2023).

One data set concerns APE1. The conditions noted are these: cited from earlier work.
Data set [1] addresses T1, Human APE1 lacking the 38 N-terminal residues (APE1^ΔN38) (Homo sapiens, UniProt P27695).
T1 construct: Human APE1 lacking the 38 N-terminal residues (APE1^ΔN38); poly-His (N, cleaved yes); made in house; host or cells: E. coli
Put plainly: APE1 endonuclease activity assay (HPLC, fraction activity). The class given is biochemical.

The target of another data set is T2, Mg^2+-bound APE1 (Homo sapiens, UniProt P27695).
T2 construct: Human APE1 lacking the 38 N-terminal residues (APE1^ΔN38); poly-His (N, cleaved yes); made in house; host or cells: E. coli
In words: NMR chemical shift perturbation (15N-TROSY), Mg2+-bound APE1. The class given is binding. Conditions: MgCl2 0.25 mM or 1.0 mM. The procedure: NMR samples (0.55 mL) contained uniformly ^15N-labeled APE1^ΔN38 (0.05 mM to 0.15 mM) in 0.02 M sodium phosphate pH 6.5, 0.1 M NaCl, 0.5 mM DTT, 0.2 mM EDTA, 10% D2O. The compounds were dissolved at 100x concentration in deuterated DMSO (DMSO-D6) and were added to the NMR samples at 1% (v/v) to give the desired compound concentration (and 1% DMSO-D6). Control samples contained APE1 with 1% DMSO-D6. […] NMR data were processed with NMRPipe, and analyzed using NMRFAM-Sparky. The chemical shift perturbation (Δδ) for backbone ^1H-^15N resonances (combined) was calculated (by NMRFAM-Sparky) using Eq 2, Δδ=ΔδH^2+ΔδN/5^2^1/2 (2) where ΔδH and ΔδN are the perturbations for ^1H and ^15N resonances, respectively.
Given the findings above, we sought to investigate whether compounds 6 or 7 might bind to the Mg^2+-bound form of APE1. […] Crystal structures of Mg^2+-bound APE1 have been determined, using crystals grown from a sample of APE1 with 1.0 mM MgCl2, a concentration that is sufficient to fully populate the metal-binding site with Mg^2+ [52, 73]. […]

The target of a further data set is T3, apo APE1^ΔN38 (Homo sapiens, UniProt P27695).
T3 construct: Human APE1 lacking the 38 N-terminal residues (APE1^ΔN38); poly-His (N, cleaved yes); made in house; host or cells: E. coli
In words: NMR chemical shift perturbation (15N-TROSY), apo APE1. Format: binding. The conditions noted are these: for number of residues with relatively strong CSPs (Δδ ≥ 0.03 ppm) / number of residues with substantial CSPs (Δδ ≥ 0.015 ppm) / sum of CSPs (ΣΔδ) for all assigned APE1 residues: apo APE1^ΔN38 0.15 mM, compound 1 mM.

Data set [2] can be described thus: Dynamic light scattering (DLS) of compound aggregation. Conditions: for effect of detergent on aggregation: 0.05% Brij 35; for concentration at which colloidal aggregates form: 20°C; for effect of centrifugation on aggregates: detergent-free buffer, centrifugation (60 min, 16000g). The class given is physicochemical. The procedure:
Dynamic light scattering (DLS) experiments were performed to monitor compound aggregation, using a SpectroLight 610 instrument (Xtal Concepts, Hamburg). The instrument features a laser diode (λ 658 nm) which was set to a power of 100 mW and a scattering angle of 150°. For each sample, five replicates of 60 sec duration were collected at 20°C. Instrument settings, including integration time, were held constant for all experiments. Samples (1 ul) were prepared under mineral oil in 96 well SBS plates. Samples included the same buffer used for enzyme activity assays, with or without Brij 35 (and in all cases without BSA). The compounds were introduced from 100x stocks prepared in DMSO, giving a final DMSO concentration of 1%; samples without compound contained 1% DMSO. The DLS studies were in some cases performed using compound stocks that had been stored at –20°C in DMSO.

Data set [3] in a line: Precipitation of compound in NMR samples. Format: physicochemical. The conditions noted are these: NMR buffer pH 6.5. The procedure: The NMR sample contained 0.03 mM compound 7 and 0.05 mM APE1, giving a molar ratio of 0.6. […] To minimize precipitation of 7, the NMR samples (including DMSO control) contained detergent (0.05% Brij 35) at the same concentration used for the activity assays. […] Thus, the NMR CSP studies provide no evidence that compound 7 binds specifically to apo-APE1. […] In particular, the population of AP-DNA bound was reduced from 100% (absence of 7) to about 30% and 5% in the presence of 7 at a concentration of 0.01 mM and 0.03 mM, respectively, indicating 7 binds with a Kd <0.01 mM to either APE1 or to AP-DNA.

The test system of data set [4] is enzyme-substrate (ES) complex involving APE1 (28 nM) and AP-DNA (10 nM). Further details: method as in PMID 22455312. The conditions noted are these: cited from earlier work; for population of AP-DNA bound: 100% in its absence.
Where [5] appears, read: 0.05% Brij 35, 0.1 mg/ml BSA, 80 nM DNA substrate, 23°C, 1% DMSO, read-out: IC50 for APE1 inhibition.
Where [6] appears, read: detergent-free assay buffer, 1% DMSO.
[7] abbreviates: no detergent or BSA, 37°C, read-out: IC50 for APE1 inhibition (prior findings).
[8] abbreviates: read-out: IC50 for APE1 inhibition (reported).

In general, IC50 refers to the midpoint of a concentration-inhibition curve. Usually Kd stands for the free concentration of one partner at which half of the binding sites on the other are occupied at equilibrium, for simple one-to-one binding.

Like-named read-outs stand apart in the source and are kept apart here.

T3 sequence (P27695 39-318): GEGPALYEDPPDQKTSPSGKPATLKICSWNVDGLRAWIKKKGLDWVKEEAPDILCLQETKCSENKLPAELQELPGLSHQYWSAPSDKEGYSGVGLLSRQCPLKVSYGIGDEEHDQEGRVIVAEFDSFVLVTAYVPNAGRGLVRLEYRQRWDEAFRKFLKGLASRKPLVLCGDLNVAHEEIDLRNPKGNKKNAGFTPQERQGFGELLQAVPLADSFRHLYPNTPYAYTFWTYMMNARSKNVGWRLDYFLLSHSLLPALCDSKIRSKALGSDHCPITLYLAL
T1 sequence (P27695 39-318): as above
T2 sequence (P27695 39-318): as above

For `Cc1cc(C)c2c(N)c3cccc(C)c3nc2n1` [Compound 6], the IC50 in the data set with APE1 (read-out: IC50 for APE1 inhibition in vitro (previous finding)) was 2 µM; in data set [1] (setting [5]), 3.1 ± 0.3 µM; in data set [1] (as restated in the NMR section, read-out: IC50 observed here) it was 3 µM. Moreover, in data set [1] (0.05% Brij 35, 0.1 mg/ml BSA), the “slope factor of the dependence of FA on compound concentration” value came out at 1.5 ± 0.2. Further, at Mg^2+-bound APE1 (compound 0.30 mM, APE1 0.10 mM), the “CSPs (Δδ >0.015 ppm) for any residue of Mg2+-bound APE1” value is given as “does not induce CSPs”. Besides, the “residues exhibiting Δδ >0.015 ppm” value on apo APE1^ΔN38 (0.10 mM apo APE1, 0.30 mM compound) is on record as “no residues”.

`O=C(O)c1cc2ccc(Br)cc2[nH]1` [Compound 4, 6-bromoindole-2-carboxylic acid]: in data set [2], the “effect of detergent on aggregation” value was “disrupted by detergent” and the “effect of centrifugation on aggregates” value is recorded as “pelleted by centrifugation”. The “concentration at which colloidal aggregates form” value in data set [2] (setting [6]) was at least 1000 µM. Further, at apo APE1^ΔN38, the “number of residues with relatively strong CSPs (Δδ ≥ 0.03 ppm)” value is reported as “eight”, the “number of residues with substantial CSPs (Δδ ≥ 0.015 ppm)” value (shortened to “number of residues … (Δδ ≥ 0.015 ppm)”) was determined as 22 and the “sum of CSPs (ΣΔδ) for all assigned APE1 residues” value (from here on “sum of CSPs (ΣΔδ)”) came out at 2.54.

Turning to `O=C(O)c1cc2cc([N+](=O)[O-])ccc2[nH]1` [Compound 3, 5-nitroindole-2-carboxylic acid], in data set [2], the “effect of detergent on aggregation” value is “disrupted by detergent” and the “effect of centrifugation on aggregates” value is given as “pelleted by centrifugation”. In addition, on apo APE1^ΔN38, the “number of residues with relatively strong CSPs (Δδ ≥ 0.03 ppm)” value is 14, the “number of residues … (Δδ ≥ 0.015 ppm)” value turned out to be 20 and the “sum of CSPs (ΣΔδ)” value worked out at 2.47.

Take `O=C(O)c1cc2cccc([N+](=O)[O-])c2[nH]1` [Compound 1, 7-nitroindole-2-carboxylic acid]: in the data set on APE1 (setting [7]), the concentration for half-maximal inhibition (IC50) was at most 10 µM. The 50% inhibitory concentration (IC50) in the data set with APE1 (setting [8]) was 3 µM. Besides, in data set [2], the “effect of detergent on aggregation” value is “disrupted by detergent” and the “effect of centrifugation on aggregates” value is recorded as “pelleted out of solution by centrifugation”. The “concentration at which colloidal aggregates form” value in data set [2] (setting [6]) was 2000 µM. Moreover, on apo APE1^ΔN38, the “number of residues … (Δδ ≥ 0.015 ppm)” value stood at 14 and the “sum of CSPs (ΣΔδ)” value is reported as 1.19.

`CC(=O)Nc1sc2c(c1-c1nc3ccccc3s1)CCN(C(C)C)C2` [Compound 7, N-(3-(benzo[d]-thiazol-2-yl)-6-isopropyl-4,5,6,7-tetrahydrothieno[2,3-c]-pyridin-2-yl)acetamide]: the “concentration at which the compound precipitates in NMR samples” value in data set [3] was at least 90 µM. Also, the “slope factor of the dependence of FA on compound concentration” value in data set [1] (0.05% Brij 35, 0.1 mg/ml BSA) is listed as 1.2 ± 0.1. The IC50 in data set [1] (setting [5]) is 8.1 ± 0.6 µM. For the same molecule, the “CSPs (Δδ >0.015 ppm) for any backbone residue of Mg2+-bound APE1” value at Mg^2+-bound APE1 (compound 0.030 mM, APE1 0.05 mM, 0.05% Brij 35) was “fails to induce CSPs”. Further, the “residues exhibiting Δδ >0.015 ppm” value at apo APE1^ΔN38 (0.05 mM apo APE1, 0.03 mM compound, 0.05% Brij 35) was “two”. For the same molecule, the Kd on apo APE1^ΔN38 (inferred from the absence of a detectible interaction, apo-APE1 0.05 mM, compound 0.03 mM, read-out: Kd for binding to apo-APE1) was over 30 µM; in data set [4] (inferred from the previous EMSA results, read-out: Kd for binding to either APE1 or AP-DNA), under 10 µM. Further, the results for the “population of AP-DNA bound” value in data set [4] (compound 0.01 mM) and in data set [4] (compound 0.03 mM) were “about 30%” and ~ 5%, respectively.

In the case of `O=C(O)c1cc2cc(F)ccc2[nH]1` [Compound 2, 5-fluoroindole-2-carboxylic acid], the IC50 with APE1 (setting [7]) is at most 10 µM. The IC50 with APE1 (setting [8]) was 10 µM. Moreover, in data set [2], the “effect of detergent on aggregation” value was “disrupted by detergent” and the “effect of centrifugation on aggregates” value is recorded as “pelleted by centrifugation”. In data set [2] (setting [6]), the “concentrations at which the compound is free of aggregates” value is “below 3 mM” and the “concentration at which colloidal aggregates form” value worked out at 10000 µM. Moreover, at apo APE1^ΔN38, the “number of residues … (Δδ ≥ 0.015 ppm)” value is listed as “ten” and the “sum of CSPs (ΣΔδ)” value worked out at 1.31.

In the case of `O=c1c(O)c(-c2cc(O)c(O)c(O)c2)oc2cc(O)cc(O)c12` [Compound 5, myricetin], the IC50 with APE1 (read-out: IC50 for APE1 inhibition (previous finding)) was 0.3 µM. Also, the “inhibition of APE1” value in data set [1] (0.33 mM compound, with detergent (0.05% Brij 35) and BSA) is given as “weak inhibition”. Further, in data set [2], the “effect of detergent on aggregation” value is recorded as “disrupted by detergent” and the “effect of centrifugation on aggregates” value is given as “pelleted by centrifugation”. Also, in data set [2] (setting [6]), the “concentration at which colloidal aggregates form” value is at least 330 µM.
